Experimental data reported in US20070037800A1, “Method of treating neurological disorders using clotrimazole and derivatives thereof” (EnVivo Pharmaceuticals, Inc., priority 2005, published 2007).

Assays:
[1] = system: Kainic acid lesion in C57BL/6 mice; assay: Mouse model of acute neurodegeneration: kainic acid lesion volume; type: in vivo; conditions: KA 1.0 nmol i.s.; clotrimazole 2 mg/kg i.p. twice daily; vs KA+vehicle; P=0.010 (t test of difference in log[size]); two days after KA
Method: To test the hypothesis that clotrimazole may be neuroprotective against KA induced excitatory damage in the brain, clotrimazole was compared to benzamide as a positive control in the mouse model. Three study groups (n=8-9) were tested: (1) C57BL/6 treated with KA 1.0 nmol (i.s.) left hemisphere+vehicle (i.p.); (2) KA 1.0 nmol i.s. left hemisphere+clotrimazole (2mg/kg) i.p. twice daily for duration of the study (including a single dose 1 hour before KA); and (3) KA 1.0 nmol i.s. left hemisphere+benzamide (160 mg/kg, i.p. 30 min before injection and 3.5 hrs after). Kainic Acid (K0250), clotrimazole (C6019) and Benzamide (150762) were purchased from Sigma and prepared as followed: Kainic Acid was dissolved in phosphate buffered saline (1×PBS, pH 7.4), pH to 7.4 using NaOH. […]
Two days after injection of KA the animals were anesthetized and transcardially perfused with ice cold phosphate buffered saline (0.1 M PBS, pH 7.4) containing 10% sucrose and then perfused with ice-cold 4% paraformaldehyde in 0.1M PBS, pH 7.4. […] The area of the lesion, indicated by the lack of staining when compared to the contralateral (intact) striatum/cortex, was measured in each series of sections (n=25-30) blindly by means of an image analysis program and the lesion volume was calculated by a stereological method (Cavalieri's estimator of volume corrected for over projection).

R6/2 mice = assay: Gait analysis (DigiGait) in R6/2 mice; type: in vivo, mouse
Description: Gait analysis was also collected at 12 weeks, which is a time when clear differences have previously been described between R6/2 and wild-type. In this analysis, the DigiGait™ Imaging System, which is non-invasive, robust, and quantitative—in that it generates numerous indices of gait dynamics and posture—was used. The system simplifies kinematic observations and analyses by imaging the animals from below a transparent treadmill. Software, including artificial intelligence algorithms, quantifies the characteristics of gait, including step sequence patterns, stride length, cadence, and paw placement. The output also includes swing and stance durations, as well as braking and propulsion durations. Indices computed by DigiGait convey information about sensory and motor inputs modulating gait and gait variability.

microglia activation = conditions: has been shown; no source given; cited from earlier work

## Clc1ccccc1C(c1ccccc1)(c1ccccc1)n1ccnc1 [clotrimazole]
[1]
  Lesion volume: statistically significant improvement
R6/2 mice; 4 and 20 mg/kg dosing, preliminary data
  Motor performance by gait analysis: significantly improved the motor performance
R6/2 mice; gait analysis at 12 weeks
  Swing ratio score: significantly improved
Microglia activation
  Inhibition of microglia activation: potent inhibitor
